Consider 24 compounds from patent US7250442B2, “Dihydroindol-2-one derivatives as steroid hormone nuclear receptor modulators” (Eli Lilly and Company, priority 2003, dated 2007).

The target of the experiment is T1, human MR (Homo sapiens, UniProt P08235).
T1 construct: The full length human MR gene is cloned from a human kidney or human brain cDNA library; made in house; host or cells: Sf9 insect cells (baculovirus, pAcHLT transfer vector)
T1 sequence (P08235 1-984): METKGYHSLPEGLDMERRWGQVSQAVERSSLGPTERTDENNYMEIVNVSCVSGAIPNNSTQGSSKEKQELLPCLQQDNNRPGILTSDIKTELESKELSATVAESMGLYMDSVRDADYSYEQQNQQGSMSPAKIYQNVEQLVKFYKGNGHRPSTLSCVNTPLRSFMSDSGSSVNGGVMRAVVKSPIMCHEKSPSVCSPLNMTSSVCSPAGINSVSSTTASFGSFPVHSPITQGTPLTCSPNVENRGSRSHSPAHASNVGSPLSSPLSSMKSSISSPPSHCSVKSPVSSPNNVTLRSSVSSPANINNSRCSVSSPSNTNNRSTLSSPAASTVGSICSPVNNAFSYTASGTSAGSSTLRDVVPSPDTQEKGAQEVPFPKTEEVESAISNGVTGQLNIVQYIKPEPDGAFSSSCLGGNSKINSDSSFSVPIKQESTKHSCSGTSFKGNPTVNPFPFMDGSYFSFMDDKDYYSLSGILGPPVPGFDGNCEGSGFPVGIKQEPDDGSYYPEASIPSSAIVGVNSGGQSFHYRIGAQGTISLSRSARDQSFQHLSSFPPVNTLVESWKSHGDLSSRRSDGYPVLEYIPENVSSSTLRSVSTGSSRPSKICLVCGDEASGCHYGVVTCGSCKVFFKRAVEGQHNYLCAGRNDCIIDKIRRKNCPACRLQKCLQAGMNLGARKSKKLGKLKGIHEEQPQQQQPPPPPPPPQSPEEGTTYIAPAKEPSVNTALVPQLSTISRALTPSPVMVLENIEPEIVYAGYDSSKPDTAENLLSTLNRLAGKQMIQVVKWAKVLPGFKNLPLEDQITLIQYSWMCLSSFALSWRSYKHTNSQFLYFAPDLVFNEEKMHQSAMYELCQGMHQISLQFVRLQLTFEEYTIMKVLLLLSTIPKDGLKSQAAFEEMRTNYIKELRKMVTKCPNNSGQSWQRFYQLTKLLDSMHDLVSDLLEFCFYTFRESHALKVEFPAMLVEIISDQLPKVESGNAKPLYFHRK
Description: Mineralocorticoid Receptor Binding Assay ([3H]-aldosterone displacement). Conditions: full length human MR expressed in Sf9 cells, 0.5 nM [3H]-aldosterone. Put shortly:
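Full-length human MR expressed in Sf9 cells; lysate (20-25 μg protein) incubated with 0.5 nM [3H]-aldosterone and test compound in molybdate/Tris/phosphate/glycerol buffer pH 7.5, 16 h at 4 °C. Bound ligand measured by filtration and scintillation counting; IC50 converted to Ki via Cheng-Prusoff.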

A word on the Ki: it is the equilibrium dissociation constant of an inhibitor or competing ligand from its target.

Regarding `CC(C)=CCN1C(=O)C(c2cc(C)c(O)c(C)c2)(c2cc(C)c(O)c(C)c2)c2ccccc21` [Example 102, 3,3-Bis-(4-hydroxy-3,5-dimethyl-phenyl)-1-(3-methyl-but-2-enyl)-1,3-dihydro-indol-2-one], the Ki is at most 500 nM.
The result for `C=C(C)CN1C(=O)C(c2cc(C)c(O)c(C)c2)(c2cc(C)c(O)c(C)c2)c2ccccc21` [Example 106, 3,3-Bis-(4-hydroxy-3,5-dimethyl-phenyl)-1-(2-methyl-allyl)-1,3-dihydro-indol-2-one] reads at most 500 nM.
The result for `COC(=O)c1ccc(CN2C(=O)C(c3cc(C)c(O)c(C)c3)(c3cc(C)c(O)c(C)c3)c3ccccc32)o1` [Example 108, 5-[3,3-Bis-(4-hydroxy-3,5-dimethyl-phenyl)-2-oxo-2,3-dihydro-indol-1-ylmethyl]-furan-2-carboxylic acid methyl ester] reads at most 500 nM.
The result for `CCOC(=O)CN1C(=O)C(c2cc(C)c(O)c(C)c2)(c2cc(C)c(O)c(C)c2)c2ccccc21` [Example 109, [3,3-Bis-(4-hydroxy-3,5-dimethyl-phenyl)-2-oxo-2,3-dihydro-indol-1-yl]-acetic acid ethyl ester] reads at most 500 nM.
Compound `Cc1cc(C2(c3cc(C)c(O)c(C)c3)C(=O)N(CCC3CCCCC3)c3ccccc32)cc(C)c1O` [Example 110, 1-(2-Cyclohexyl-ethyl)-3,3-bis-(4-hydroxy-3,5-dimethyl-phenyl)-1,3-dihydro-indol-2-one] had a Ki of at most 500 nM.
The result for `Cc1cc(C2(c3cc(C)c(O)c(C)c3)C(=O)N(Cc3ccncc3)c3ccccc32)cc(C)c1O` [Example 111, 3,3-Bis-(4-hydroxy-3,5-dimethyl-phenyl)-1-pyridin-4-ylmethyl-1,3-dihydro-indol-2-one] reads at most 500 nM; that for `Cc1cc(C2(c3cc(C)c(O)c(C)c3)C(=O)N(Cc3c(Cl)cccc3Cl)c3ccccc32)cc(C)c1O` [Example 113, 1-(2,6-Dichloro-benzyl)-3,3-bis-(4-hydroxy-3,5-dimethyl-phenyl)-1,3-dihydro-indol-2-one], at most 500 nM; that for `Cc1cc(C2(c3cc(C)c(O)c(C)c3)C(=O)N(Cc3c(F)cccc3F)c3ccccc32)cc(C)c1O` [Example 115, 1-(2,6-Difluoro-benzyl)-3,3-bis-(4-hydroxy-3,5-dimethyl-phenyl)-1,3-dihydro-indol-2-one], at most 500 nM.
Then `Cc1cc(C2(c3cc(C)c(O)c(C)c3)C(=O)N(Cc3ccccc3N)c3ccccc32)cc(C)c1O` [Example 119, 1-(2-Amino-benzyl)-3,3-bis-(4-hydroxy-3,5-dimethyl-phenyl)-1,3-dihydro-indol-2-one], with at most 500 nM; and `Cc1ccc(N2C(=O)C(c3cc(C)c(O)c(C)c3)(c3cc(C)c(O)c(C)c3)c3ccccc32)cc1` [Example 125, 3,3-Bis-(4-hydroxy-3,5-dimethyl-phenyl)-1-p-tolyl-1,3-dihydro-indol-2-one], with at most 500 nM.
`Cc1cc(C2(c3cc(C)c(O)c(C)c3)C(=O)N(c3ccccc3)c3ccccc32)cc(C)c1O` [Example 126, 3,3-Bis-(4-hydroxy-3,5-dimethyl-phenyl)-1-phenyl-1,3-dihydro-indol-2-one] yielded a Ki of at most 500 nM.
`Cc1cc(C2(c3cc(C)c(O)c(C)c3)C(=O)N(c3cccc(C(F)(F)F)c3)c3ccccc32)cc(C)c1O` [Example 127, 3,3-Bis-(4-hydroxy-3,5-dimethyl-phenyl)-1-(3-trifluoromethyl-phenyl)-1,3-dihydro-indol-2-one] displayed a Ki of at most 500 nM.
The result for `Cc1cc(C2(c3cc(C)c(O)c(C)c3)C(=O)N(c3ccccc3Cl)c3ccccc32)cc(C)c1O` [Example 129, 1-(2-Chloro-phenyl)-3,3-bis-(4-hydroxy-3,5-dimethyl-phenyl)-1,3-dihydro-indol-2-one] reads at most 500 nM.
Then `Cc1cc(C2(c3cc(C)c(O)c(C)c3)C(=O)N(c3cccc(F)c3)c3ccccc32)cc(C)c1O` [Example 130, 1-(3-Fluoro-phenyl)-3,3-bis-(4-hydroxy-3,5-dimethyl-phenyl)-1,3-dihydro-indol-2-one], with at most 500 nM.
The result for `Cc1cc(C2(c3cc(C)c(O)c(C)c3)C(=O)N(c3ccc(C(F)(F)F)cc3)c3ccccc32)cc(C)c1O` [Example 131, 3,3-Bis-(4-hydroxy-3,5-dimethyl-phenyl)-1-(4-trifluoromethyl-phenyl)-1,3-dihydro-indol-2-one] reads at most 500 nM.
As for `Cc1ccccc1N1C(=O)C(c2cc(C)c(O)c(C)c2)(c2cc(C)c(O)c(C)c2)c2ccccc21` [Example 132, 3,3-Bis-(4-hydroxy-3,5-dimethyl-phenyl)-1-o-tolyl-1,3-dihydro-indo 1-2-one], the Ki is at most 500 nM.
Then `Cc1cccc(N2C(=O)C(c3cc(C)c(O)c(C)c3)(c3cc(C)c(O)c(C)c3)c3ccccc32)c1` [Example 133, 3,3-Bis-(4-hydroxy-3,5-dimethyl-phenyl)-1-m-tolyl-1,3-dihydro-indol-2-one], with at most 500 nM; and `Cc1cc(C2(c3cc(C)c(O)c(C)c3)C(=O)N(c3ccncc3)c3ccccc32)cc(C)c1O` [Example 136, 3,3-Bis-(4-hydroxy-3,5-dimethyl-phenyl)-1-pyridin-4-yl-1,3-dihydro-indol-2-one], with at most 500 nM.
Regarding `CCOc1cccc(N2C(=O)C(c3cc(C)c(O)c(C)c3)(c3cc(C)c(O)c(C)c3)c3ccccc32)c1` [Example 137, 1-(3-Ethoxy-phenyl)-3,3-bis-(4-hydroxy-3,5-dimethyl-phenyl)-1,3-dihydro-indol-2-one], the Ki is at most 500 nM.
Then `Cc1cc(C2(c3cc(C)c(O)c(C)c3)C(=O)N(c3cccc(C(C)C)c3)c3ccccc32)cc(C)c1O` [Example 138, 3,3-Bis-(4-hydroxy-3,5-dimethyl-phenyl)-1-(3-isopropyl-phenyl)-1,3-dihydro-indol-2-one], with at most 500 nM; and `COc1ccc(N2C(=O)C(c3cc(C)c(O)c(C)c3)(c3cc(C)c(O)c(C)c3)c3ccccc32)cc1OC` [Example 140, 1-(3,4-Dimethoxy-phenyl)-3,3-bis-(4-hydroxy-3,5-dimethyl-phenyl)-1,3-dihydro-indol-2-one], with at most 500 nM.
The result for `COC(=O)c1cccc(-c2noc(CN3C(=O)C(c4cc(C)c(O)c(C)c4)(c4cc(C)c(O)c(C)c4)c4ccccc43)n2)c1` [Example 141, 3-{5-[3,3-Bis-(4-hydroxy-3,5-dimethyl-phenyl)-2-oxo-2,3-dihydro-indol-1-ylmethyl]-[1,2,4]oxadiazol-3-yl}-benzoic acid methyl ester] reads at most 500 nM; that for `COc1ccc(-c2noc(CN3C(=O)C(c4cc(C)c(O)c(C)c4)(c4cc(C)c(O)c(C)c4)c4ccccc43)n2)cc1` [Example 142, 3,3-Bis-(4-hydroxy-3,5-dimethyl-phenyl)-1-[3-(4-methoxy-phenyl)-[1,2,4]oxadiazol-5-ylmethyl]-1,3-dihydro-indol-2-one], at most 500 nM; that for `COc1nccc(N2C(=O)C(c3cc(C)c(O)c(C)c3)(c3cc(C)c(O)c(C)c3)c3ccccc32)n1` [Example 143, 3,3-Bis-(4-hydroxy-3,5-dimethyl-phenyl)-1-(2-methoxy-pyrimidin-4-yl)-1,3-dihydro-indol-2-one], at most 500 nM.
